Source: patent US20240342330A1, “METHOD FOR THE PREPARATION OF SURFACES, PARTICULARLY OF CARDIAC PROSTHESIS” (BIOCOMPATIBILITY INNOVATION S.R.L., priority 2021, published 2024)

Assays:
Assay in all cases: Bactericidal activity suspension assay
Type in all cases: cell-based
Details in all cases: 24 hours incubation
[1] = system: Pseudomonas aeruginosa ATCC 9027
[2] = system: Salmonella enterica typhimurium ATCC 14028
[3] = system: Enterococcus faecalis ATCC 29212
[4] = system: Listeria monocytogenes ATCC 19111
[5] = system: Staphylococcus aureus ATCC 6538
[6] = system: Streptococcus viridans ATCC 6249
[7] = system: Candida albicans ATCC 10231
[8] = system: Aspergillus brasiliensis ATCC 16404
[9] = system: Mycobacterium chelonae ATCC 35752

CCO [ETHANOL, ethanol]
BACTERICIDAL ACTIVITY % [1]: 99.99%
BACTERICIDAL ACTIVITY % [2]: 90%
BACTERICIDAL ACTIVITY % [3]: 0%
BACTERICIDAL ACTIVITY % [4]: 0%
BACTERICIDAL ACTIVITY % [5]: 99%
BACTERICIDAL ACTIVITY % [6]: 90%
BACTERICIDAL ACTIVITY % [7]: 99.9%
BACTERICIDAL ACTIVITY % [8]: 90%
BACTERICIDAL ACTIVITY % [9]: 99%
